Source: paper PMC12317361, “Pharmacological Inhibition of c‐Jun N‐Terminal Kinase Activity Exacerbates Liver Damage in Schistosoma mansoni Infected Mice” (Liver International, 2025)

Target: SmJNK (S. mansoni c-Jun N-terminal kinase) (Schistosoma mansoni, UniProt A0A3Q0KT26)
Assay: cellular thermal shift assay (CETSA), isothermal dose-response fingerprint in SmJNK-expressing Sf21 cells
Format: cell-based

SmJNK (S. mansoni c-Jun N-terminal kinase), sequence (A0A3Q0KT26 entry or part of it): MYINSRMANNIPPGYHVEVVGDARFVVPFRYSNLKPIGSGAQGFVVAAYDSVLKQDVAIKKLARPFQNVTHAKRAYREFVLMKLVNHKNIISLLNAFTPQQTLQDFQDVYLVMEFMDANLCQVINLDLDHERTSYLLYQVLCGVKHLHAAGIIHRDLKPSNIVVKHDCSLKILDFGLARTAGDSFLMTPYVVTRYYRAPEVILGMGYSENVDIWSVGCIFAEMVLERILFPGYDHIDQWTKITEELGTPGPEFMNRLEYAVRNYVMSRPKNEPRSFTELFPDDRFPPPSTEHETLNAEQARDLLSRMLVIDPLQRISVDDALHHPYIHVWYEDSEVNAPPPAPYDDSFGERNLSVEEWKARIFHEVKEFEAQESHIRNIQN

In the case of `Oc1c2ccccc2c2c3c(cccc13)N=N2` [SP600125], the Kd is reported as 0.65 µM.
